Test results reported in patent US12209087B2, “AKT1 modulators” (Alterome Therapeutics, Inc., priority 2022, dated 2025).

Target: T1, full length AKT E17K (Homo sapiens, UniProt P31749, E17K)
T1 construct: host or cells: HEK-293 (ATCC CRL-1573)
Assay: NanoBRET Target Engagement (TE) Assay
Format: cell-based
Conditions: competitive displacement of tracer in cells, read-out: AKT1 E17K IC50
Outline: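 Compound and tracer incubated 2 h before luminescence at donor 450 nm and acceptor 600 nm, with extracellular signal inhibited. EC50 by sigmoidal variable-slope regression.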

T1 sequence (P31749 whole entry E17K): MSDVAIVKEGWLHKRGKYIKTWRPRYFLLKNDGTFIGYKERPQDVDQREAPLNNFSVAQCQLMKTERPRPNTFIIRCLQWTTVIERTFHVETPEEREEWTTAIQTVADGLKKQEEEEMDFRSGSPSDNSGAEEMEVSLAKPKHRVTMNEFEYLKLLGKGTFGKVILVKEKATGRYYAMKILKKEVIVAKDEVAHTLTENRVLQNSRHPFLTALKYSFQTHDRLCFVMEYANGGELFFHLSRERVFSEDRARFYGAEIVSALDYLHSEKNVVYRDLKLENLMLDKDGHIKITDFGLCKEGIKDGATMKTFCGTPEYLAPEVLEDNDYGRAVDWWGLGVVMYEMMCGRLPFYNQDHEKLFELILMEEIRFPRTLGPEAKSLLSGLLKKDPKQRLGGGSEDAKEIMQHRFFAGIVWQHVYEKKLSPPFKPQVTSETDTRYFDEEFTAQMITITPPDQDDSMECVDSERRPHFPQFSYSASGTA

IC50 [nM] | SMILES
60 to 600 | Cn1cnnc1-c1ccc2nc(-c3cccnc3N)n(-c3ccc(CN4CCC(Nc5ccnc(C#N)n5)CC4)cc3)c2n1 [Example 569, 4-((1-(4-(2-(2-Aminopyridin-3-yl)-5-(4-methyl-4H-1,2,4-triazol-3-yl)-3H-imidazo[4,5-b]pyridin-3-yl)benzyl)piperidin-4-yl)amino)pyrimidine-2-carbonitrile]
< 15 | N#Cc1nccc(NC2CCN(Cc3ccc(-n4c(-c5cccnc5N)nc5ccc(-c6ncccc6F)nc54)cc3)CC2)n1 [Example 570, 4-((1-(4-(2-(2-Aminopyridin-3-yl)-5-(3-fluoropyridin-2-yl)-3H-imidazo[4,5-b]pyridin-3-yl)benzyl)piperidin-4-yl)amino)pyrimidine-2-carbonitrile]
< 15 | Cc1cccc(-c2ccc3nc(-c4cccnc4N)n(-c4ccc(CN5CCC(Nc6ccnc(C#N)n6)CC5)cc4)c3n2)n1 [Example 571, 4-((1-(4-(2-(2-Aminopyridin-3-yl)-5-(6-methylpyridin-2-yl)-3H-imidazo[4,5-b]pyridin-3-yl)benzyl)piperidin-4-yl)amino)pyrimidine-2-carbonitrile]
< 15 | N#Cc1nccc(NC2CCN(Cc3ccc(-n4c(-c5cccnc5N)nc5ccc(-c6ncn(C(F)F)n6)nc54)cc3)CC2)n1 [Example 572, 4-((1-(4-(2-(2-Aminopyridin-3-yl)-5-(1-(difluoromethyl)-1H-1,2,4-triazol-3-yl)-3H-imidazo[4,5-b]pyridin-3-yl)benzyl)piperidin-4-yl)amino)pyrimidine-2-carbonitrile]
15 to 60 | N#Cc1nccc(NC2CCN(Cc3ccc(-n4c(-c5cncnc5N)nc5ccc(-c6ccc(F)cn6)nc54)cc3)CC2)n1 [Example 573, 4-((1-(4-(2-(4-Aminopyrimidin-5-yl)-5-(5-fluoropyridin-2-yl)-3H-imidazo[4,5-b]pyridin-3-yl)benzyl)piperidin-4-yl)amino)pyrimidine-2-carbonitrile]
< 15 | N#Cc1nccc(NC2CCN(Cc3ccc(-n4c(-c5nccnc5N)nc5ccc(-c6ccc(F)cn6)nc54)cc3)CC2)n1 [Example 574, 4-((1-(4-(2-(3-Aminopyrazin-2-yl)-5-(5-fluoropyridin-2-yl)-3H-imidazo[4,5-b]pyridin-3-yl)benzyl)piperidin-4-yl)amino)pyrimidine-2-carbonitrile]
60 to 600 | N#Cc1nccc(NC2CCN(Cc3ccc(-n4c(-c5cccnc5)nc5ccc(-c6ccc(F)cn6)nc54)cc3)CC2)n1 [Example 575, 4-((1-(4-(5-(5-Fluoropyridin-2-yl)-2-(pyridin-3-yl)-3H-imidazo[4,5-b]pyridin-3-yl)benzyl)piperidin-4-yl)amino)pyrimidine-2-carbonitrile]
15 to 60 | N#Cc1nccc(NC2CCN(Cc3ccc(-n4c(-c5ccccc5N)nc5ccc(-c6ccc(F)cn6)nc54)cc3)CC2)n1 [Example 576, 4-((1-(4-(2-(2-Aminophenyl)-5-(5-fluoropyridin-2-yl)-3H-imidazo[4,5-b]pyridin-3-yl)benzyl)piperidin-4-yl)amino)pyrimidine-2-carbonitrile]
15 to 60 | N#Cc1nccc(NC2CCN(Cc3ccc(-n4c(-c5ccccc5)nc5ccc(-c6ccc(F)cn6)nc54)cc3)CC2)n1 [Example 577, 4-((1-(4-(5-(5-Fluoropyridin-2-yl)-2-phenyl-3H-imidazo[4,5-b]pyridin-3-yl)benzyl)piperidin-4-yl)amino)pyrimidine-2-carbonitrile]
< 15 | [2H]C([2H])([2H])Oc1ccc(-c2ccc3nc(-c4cccnc4N)n(-c4ccc(CN5CCC(Nc6ccnc(C#N)n6)CC5)cc4)c3n2)nc1 [Example 578, 4-((1-(4-(2-(2-Aminopyridin-3-yl)-5-(5-(methoxy-d)pyridin-2-yl)-3H-imidazo[4,5-b]pyridin-3-yl)benzyl)piperidin-4-yl)amino)pyrimidine-2-carbonitrile]
< 15 | N#Cc1nccc(NC2CCN(Cc3ccc(-n4c(-c5cccnc5N)nc5ccc(-c6ccc(OC(F)F)cn6)nc54)cc3)CC2)n1 [Example 579, 4-((1-(4-(2-(2-Aminopyridin-3-yl)-5-(5-(difluoromethoxy)pyridin-2-yl)-3H-imidazo[4,5-b]pyridin-3-yl)benzyl)piperidin-4-yl)amino)pyrimidine-2-carbonitrile]
< 15 | N#Cc1nccc(NC2CCN(Cc3ccc(-n4c(-c5cccnc5N)nc5ccc(-c6ccc(OCF)cn6)nc54)cc3)CC2)n1 [Example 580, 4-((1-(4-(2-(2-Aminopyridin-3-yl)-5-(5-(fluoromethoxy)pyridin-2-yl)-3H-imidazo[4,5-b]pyridin-3-yl)benzyl)piperidin-4-yl)amino)pyrimidine-2-carbonitrile]
15 to 60 | COc1cnc(-c2ccc3nc(-c4cccnc4N)n(-c4ccc(CN5CCC(Nc6ccnc(C#N)n6)CC5)cc4)c3n2)nc1 [Example 581, 4-((1-(4-(2-(2-Aminopyridin-3-yl)-5-(5-methoxypyrimidin-2-yl)-3H-imidazo[4,5-b]pyridin-3-yl)benzyl)piperidin-4-yl)amino)pyrimidine-2-carbonitrile]
< 15 | Cc1cnc(-c2ccc3nc(-c4cccnc4N)n(-c4ccc(CN5CCC(Nc6ccnc(C#N)n6)CC5)cc4)c3n2)cn1 [Example 582, 4-((1-(4-(2-(2-Aminopyridin-3-yl)-5-(5-methylpyrazin-2-yl)-3H-imidazo[4,5-b]pyridin-3-yl)benzyl)piperidin-4-yl)amino)pyrimidine-2-carbonitrile]
< 15 | COc1cnc(-c2ccc3nc(-c4cccnc4N)n(-c4ccc(CN5CCC(Nc6ccnc(C#N)n6)CC5)cc4)c3n2)cn1 [Example 583, 4-((1-(4-(2-(2-Aminopyridin-3-yl)-5-(5-methoxypyrazin-2-yl)-3H-imidazo[4,5-b]pyridin-3-yl)benzyl)piperidin-4-yl)amino)pyrimidine-2-carbonitrile]
< 15 | CCOc1ccc(-c2ccc3nc(-c4cccnc4N)n(-c4ccc(CN5CCC(Nc6ccnc(C#N)n6)CC5)cc4)c3n2)cn1 [Example 584, 4-((1-(4-(2-(2-Aminopyridin-3-yl)-5-(6-ethoxypyridin-3-yl)-3H-imidazo[4,5-b]pyridin-3-yl)benzyl)piperidin-4-yl)amino)pyrimidine-2-carbonitrile]
< 15 | N#Cc1nccc(NC2CCN(Cc3ccc(-n4c(-c5cccnc5N)nc5ccc(-c6ccc(OC7CC7)cn6)nc54)cc3)CC2)n1 [Example 585, 4-((1-(4-(2-(2-Aminopyridin-3-yl)-5-(5-cyclopropoxypyridin-2-yl)-3H-imidazo[4,5-b]pyridin-3-yl)benzyl)piperidin-4-yl)amino)pyrimidine-2-carbonitrile]
< 15 | CC(C)Oc1ccc(-c2ccc3nc(-c4cccnc4N)n(-c4ccc(CN5CCC(Nc6ccnc(C#N)n6)CC5)cc4)c3n2)nc1 [Example 586, 4-((1-(4-(2-(2-Aminopyridin-3-yl)-5-(5-isopropoxypyridin-2-yl)-3H-imidazo[4,5-b]pyridin-3-yl)benzyl)piperidin-4-yl)amino)pyrimidine-2-carbonitrile]
< 15 | N#Cc1nccc(NC2CCN(Cc3ccc(-n4c(-c5cccnc5N)nc5ccc(-c6ccc(C7CC7)nc6)nc54)cc3)CC2)n1 [Example 587, 4-((1-(4-(2-(2-Aminopyridin-3-yl)-5-(6-cyclopropylpyridin-3-yl)-3H-imidazo[4,5-b]pyridin-3-yl)benzyl)piperidin-4-yl)amino)pyrimidine-2-carbonitrile]
15 to 60 | Cc1nncn1-c1ccc2nc(-c3cccnc3N)n(-c3ccc(CN4CCC(Nc5ccnc(C#N)n5)CC4)cc3)c2n1 [Example 588, 4-((1-(4-(2-(2-aminopyridin-3-yl)-5-(3-methyl-4H-1,2,4-triazol-4-yl)-3H-imidazo[4,5-b]pyridin-3-yl)benzyl)piperidin-4-yl)amino)pyrimidine-2-carbonitrile]
15 to 60 | Cc1ncn(-c2ccc3nc(-c4cccnc4N)n(-c4ccc(CN5CCC(Nc6ccnc(C#N)n6)CC5)cc4)c3n2)n1 [Example 589, 4-((1-(4-(2-(2-aminopyridin-3-yl)-5-(3-methyl-1H-1,2,4-triazol-1-yl)-3H-imidazo[4,5-b]pyridin-3-yl)benzyl)piperidin-4-yl)amino)pyrimidine-2-carbonitrile]
< 15 | N#Cc1nccc(NC2CCN(Cc3ccc(-n4c(-c5cccnc5N)nc5ccc(-n6cncn6)nc54)cc3)CC2)n1 [Example 590, 4-((1-(4-(2-(2-Aminopyridin-3-yl)-5-(1H-1,2,4-triazol-1-yl)-3H-imidazo[4,5-b]pyridin-3-yl)benzyl)piperidin-4-yl)amino)pyrimidine-2-carbonitrile]
< 15 | N#Cc1nccc(NC2CCN(Cc3ccc(-n4c(-c5cccnc5N)nc5ccc(-n6ccnn6)nc54)cc3)CC2)n1 [Example 591, 4-((1-(4-(2-(2-Aminopyridin-3-yl)-5-(1H-1,2,3-triazol-1-yl)-3H-imidazo[4,5-b]pyridin-3-yl)benzyl)piperidin-4-yl)amino)pyrimidine-2-carbonitrile]
< 15 | N#Cc1nccc(NC2CCN(Cc3ccc(-n4c(-c5cccnc5N)nc5ccc(-n6nccn6)nc54)cc3)CC2)n1 [Example 592, 4-((1-(4-(2-(2-Aminopyridin-3-yl)-5-(2H-1,2,3-triazol-2-yl)-3H-imidazo[4,5-b]pyridin-3-yl)benzyl)piperidin-4-yl)amino)pyrimidine-2-carbonitrile]
< 15 | Cc1cn(-c2ccc3nc(-c4cccnc4N)n(-c4ccc(CN5CCC(Nc6ccnc(C#N)n6)CC5)cc4)c3n2)nn1 [Example 593, 4-((1-(4-(2-(2-Aminopyridin-3-yl)-5-(4-methyl-1H-1,2,3-triazol-1-yl)-3H-imidazo[4,5-b]pyridin-3-yl)benzyl)piperidin-4-yl)amino)pyrimidine-2-carbonitrile]
< 15 | N#Cc1nccc(NC2CCN(Cc3ccc(-n4c(-c5cccnc5N)nc5ccc(-c6cocn6)nc54)cc3)CC2)n1 [Example 594, 4-((1-(4-(2-(2-Aminopyridin-3-yl)-5-(oxazol-4-yl)-3H-imidazo[4,5-b]pyridin-3-yl)benzyl)piperidin-4-yl)amino)pyrimidine-2-carbonitrile]
